Experimental data as given in patent US20120067455A1, “Apparatus and Methods for Loading a Drug Eluting Medical Device” (Medtronic Vascular, Inc., priority 2010, published 2012).

Assay: Solubility of sirolimus in solvents and dispersion media
Format: physicochemical
Method: Solution 524 is a homogeneous mixture in which therapeutic substance 112 dissolves within a solvent or a solvent mixture. In one embodiment, solution 524 includes a high-capacity solvent 528 which is an organic solvent that has a high capacity to dissolve therapeutic substance 112. High capacity as utilized herein is defined as an ability to dissolve therapeutic substance 112 at concentrations greater than 500 mg of substance per milliliter of solvent. Examples of high capacity drug dissolving solvents for sirolimus and similar substances include but are not limited to tetrahydrofuran (THF), di-chloromethane (DCM), chloroform, and di-methyl-sulfoxide (DMSO). In addition to the high-capacity solvent, solution 524 may include an excipient 526 in order to assist in drug elution. In one embodiment, excipient 526 may be a surfactant such as but not limited to sorbitan fatty acid esters such as sorbitan monooleate and sorbitan monolaurate, polysorbates such as polysorbate 20, polysorbate 60, and polysorbate 80, cyclodextrins such as 2-hydroxypropyl-beta-cyclodextrin and 2,6-di-O-methyl-beta-cyclodextrin, sodium dodecyl sulfate, octyl glucoside, and low molecular weight poly(ethylene glycol)s. In another embodiment, excipient 526 may be a hydrophilic agent such as but not limited to salts such as sodium chloride and other materials such as urea, citric acid, and ascorbic acid. In yet another embodiment, excipient 526 may be a stabilizer such as but not limited to butylated hydroxytoluene (BHT). Depending on the desired drug load, a low capacity solvent can also be chosen for its reduced solubility of therapeutic substance 112. Low capacity is defined as an ability to dissolve therapeutic substance 112 at concentrations typically below 500 mg of drug per milliliter solvent. Examples of low capacity drug dissolving solvents for sirolimus and similar substances include but are not limited to methanol, ethanol, propanol, acetonitrile, ethyl lactate, acetone, and solvent mixtures like tetrahydrafuran/water (9:1 weight ratio). […]

solubility in supercritical carbon dioxide (SCCO2): low capacity
solubility in hexane (hexane): insoluble
solubility in water (water): insoluble
Compound: CO[C@H]1C[C@@H]2CC[C@@H](C)[C@@](O)(O2)C(=O)C(=O)N2CCCC[C@H]2C(=O)O[C@H]([C@H](C)C[C@@H]2CC[C@@H](O)[C@H](OC)C2)CC(=O)[C@H](C)/C=C(\C)[C@@H](O)[C@@H](OC)C(=O)[C@H](C)C[C@H](C)/C=C/C=C/C=C/1C [sirolimus]
